From patent US5648366A, “Substituted pyrrolidin-3-yl-alkyl-piperidines” (Merrell Pharmaceuticals Inc., priority 1995, dated 1997)

Tests used:
[1] = biological target: NK1 receptor (Cavia porcellus, UniProt P30547); assay: Antagonism of iodinated tachykinin (125I-substance P) binding to NK1 receptor in guinea pig lungs; design: tissue Keystone Biologicals, Cleveland, Ohio; host or cells: guinea pig lung membranes
Method: ANTAGONISM OF IODINATED TACHYKININ BINDING TO NK1 AND NK2 RECEPTORS BY PUTATIVE ANTAGONISTS
The NK1 receptor affinity of proposed tachykinin antagonists was evaluated in guinea pig lungs (Keystone Biologicals, Cleveland, Ohio), affinity for the NK2 receptor evaluated in HSKR-1 cells (which are mouse 3T3 fibroblasts expressing the human jejunal NK2 receptor) and NK-3 receptor affinity was evaluated in freshly collected guinea pig cerebral cortex. Tissues or cells were homogenized with a Polytron in 15 volumes of 50 mM Tris-HCl buffer (pH 7.4, 4° C.) and centrifuged. The pellet was resuspended in Tris-HCl buffer and was centrifuged; the pellet was washed twice by resuspension. The final pellet was resuspended at a concentration of 40 mg/ml for tissues (guinea pig lung and cerebral cortex) and 20 mg/ml for cells in incubation buffer and remained at room temperature for at least 15 min prior to use. Receptor binding was initiated by addition of 250 ul membrane preparation in duplicate to 0.1 nM of the following radioligands: ^125 I-Bolton Hunter Lys-3 labeled substance P; ^125 iodohistidyl-1-neurokinin A; and ^125 I-Bolton Hunter labeled Lys-4 eledoisin in a final volume of 500 ul of buffer containing 50 mM Tris-HCl (pH 7.4 at room temperature), 0.1% bovine serum albumin, 2 mM MnCl2, 40 ug/ml bacitracin, 4 µg/ml leupeptin and chymostatin, 1 μM thiorphan and various doses of the putative tachykinin antagonists. Incubations were performed at room temperature for 90 min (NK1 receptor assays) or 2 hr (NK2 and NK3 receptor assays); binding was terminated by addition of 50 mM Tris-HCl buffer (pH 7.4, 4° C.) and filtration under vacuum through GF/B filters presoaked with 0.1% polyethyleneimine (NK1 receptor assays) or 0.5% bovine serum albumin (NK2 and NK3 receptor assays). Filter bound radioactivity was quantitated in a gamma counter. Nonspecific binding was defined as binding in the presence of 1 μM substance P, neurokinin A, or eledoisin. Specific binding was calculated by subtracting nonspecific binding from total binding. Competition of iodinated SP, NKA, or eledoisin binding by test compounds or standards was expressed as a percentage of this maximum competition. IC50 values (concentration required to inhibit 50% of receptor binding) were generated for each of the test compounds by nonlinear regression using an iterative curve fitting program (GraphPAD Inplot, San Diego, Calif.).

[2] = biological target: T1, NK1 receptor (Homo sapiens, UniProt P25103); assay: Antagonism of NK1 receptor mediated (SP-induced) phosphatidylinositol turnover in UC11 cells; format: cell-based
T1 construct: endogenous in cells; host or cells: UC11 cells
T1 sequence (P25103 whole entry): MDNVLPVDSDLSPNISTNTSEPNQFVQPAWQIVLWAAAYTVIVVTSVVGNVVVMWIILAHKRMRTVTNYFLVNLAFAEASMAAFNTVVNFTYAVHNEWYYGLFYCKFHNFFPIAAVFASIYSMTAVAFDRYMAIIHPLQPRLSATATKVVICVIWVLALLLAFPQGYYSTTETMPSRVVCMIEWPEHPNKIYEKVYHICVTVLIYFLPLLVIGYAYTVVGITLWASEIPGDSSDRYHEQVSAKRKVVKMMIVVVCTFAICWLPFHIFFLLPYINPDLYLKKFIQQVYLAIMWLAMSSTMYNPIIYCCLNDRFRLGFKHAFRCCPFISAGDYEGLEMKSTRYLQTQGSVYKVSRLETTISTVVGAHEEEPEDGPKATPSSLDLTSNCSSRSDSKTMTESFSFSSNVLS
Method: ANTAGONISM OF NK1 AND NK2 RECEPTOR MEDIATED PHOSPHATID[…]
Tachykinin-mediated inositol phosphate accumulation was measured in UC11 or SKLKB82#3 cells in the presence and absence of NK1 or NK2 receptor antagonists, respectively. Tissues were incubated in Krebs-Henseleit buffer at 37° C. with 95% O2 -5% CO2 gassing. Tissues were then incubated with fresh buffer containing 100 μCi of myo-[2-^3 H(N)] inositol at 37° C. for 60 min with gentle gassing. After washing twice in 5 ml room temperature buffer containing 10 mM LiCl, tissues were incubated for 30 min at room temperature with a buffer change at 15 min. Buffer was removed and Krebs-Henseleit buffer (containing 40 μg/ml bacitracin, 4 μg/ml each of leupeptin and chymostatin, 0.1% bovine serum albumin and 10 mM each of thiorphan and LiCl) added. After 15 min, SP was added to UC11 cells or NKA to SKLKB82#3 cells at various concentrations to start the reaction. After incubation for 60 min at room temperature the reaction was terminated by addition of 930 μl chloroform: methanol (1:2 by volume) to each tube, followed by 310 μl chloroform and 310 μl doubly distilled water. Samples were vortexed, centrifuged, and 0.9 ml of the aqueous (top) phase removed and added to 2 ml ddH2 O. The mixture was vortexed and loaded onto a 50% Bio-Rad AG 1-X8 (formate form, 100-200 mesh) exchange column (Bio-Rad Laboratories, Hercules, Calif.). The columns were washed, in order, with: 1) 10 ml doubly distilled water, 2) 5 ml of 5 mM disodium tetraborate/60 mM sodium formate, and 3) 5 ml of 1M ammonium formate/0.1M formic acid. The third elution was collected and 1 ml counted in 7 ml scintillation fluid. A 50 μl aliquot of the organic (bottom) phase was removed, dried in a scintillation vial and counted in 7 ml scintillation fluid.
The ratio of DPM in the aqueous phase aliquot (total inositol phosphates) to the DPM in the 50 μl organic phase aliquot (total [^3 H]inositol incorporated) was calculated for each sample. Data are expressed as a percent of agonist-induced accumulation of [^3 H]-inositol phosphates over basal levels. The ratios in the presence of test compound and/or standards were compared to the ratios for control samples (i.e. no stimulating agonist). Dose-response graphs were constructed and the abilities of the test compounds to inhibit tachykinin-induced phosphatidyinositol turnover determined with the aid of a computer program. […] Data is expressed as percent stimulation of total inositol phosphate accumulation over basal levels and normalized to the maximum response produced by SP. […] Schild analysis is performed using dose response curves (such as those presented in FIGS. 1a and 1b) to obtain a value indicative of the strength of a competitive antagonist and is expressed as the pA2, which is the negative logarithm of the molar concentration of antagonist which reduces the effect of a dose of agonist to one-half of that expected at the dose of agonist.

Sequence of NK1 receptor (Cavia porcellus, UniProt P30547) (P30547 whole entry): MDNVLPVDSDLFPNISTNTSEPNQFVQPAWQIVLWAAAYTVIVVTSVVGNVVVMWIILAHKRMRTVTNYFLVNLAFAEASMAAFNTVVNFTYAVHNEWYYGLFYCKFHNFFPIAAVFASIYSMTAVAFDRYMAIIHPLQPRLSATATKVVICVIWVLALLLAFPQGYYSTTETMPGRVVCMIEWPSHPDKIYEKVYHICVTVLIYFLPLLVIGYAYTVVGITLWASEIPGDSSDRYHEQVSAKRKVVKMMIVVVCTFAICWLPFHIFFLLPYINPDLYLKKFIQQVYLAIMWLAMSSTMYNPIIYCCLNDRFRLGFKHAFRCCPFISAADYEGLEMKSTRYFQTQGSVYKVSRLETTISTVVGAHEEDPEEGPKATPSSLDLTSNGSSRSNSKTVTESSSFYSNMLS

With COc1cc(C(=O)N2CCC(CCN3CCC(C(N)=O)(c4ccccc4)CC3)(c3ccc(Cl)c(Cl)c3)C2)cc(OC)c1OC (stereo not drawn) [Example 3, 1-[2-[3-(3,4-dichloro-phenyl)-1-(3,4,5-trimethoxy-benzoyl)-pyrrolidin-3-yl]-ethyl]-4-phenyl-piperidine-4-carboxylic acid amide] the “affinity for NK1 receptors (in words)” value [1] was “high affinity”, the “antagonism of SP induced PI turnover (in words, FIG. 1a)” value ([2]; UC11 cells) was “dose related antagonism” and the “agonist activity, PI turnover in UC11 cells (in words)” value ([2]; compound alone) was “no agonist activity”.
